Data taken from publication PMC6274398, “Three Novel Triterpenoids from Taraxacum officinale Roots” (Molecules, 2016).
Read-outs that look alike come from different tables or passages of the source.

Assays:
[1] = test system: NO production in RAW 264.7 mouse macrophages stimulated by lipopolysaccharide (LPS); experiment: Inhibitory assay of NO production (Griess) in LPS-stimulated RAW264.7 cells; type: cell-based; details: for IC50 / activity at 1 µM / activity at 3 µM / activity at 10 µM / activity at 30 µM: Mus musculus; for IC50: read-out: IC50 (inhibition of NO production); for activity at 1 µM / activity at 3 µM / activity at 10 µM / activity at 30 µM: read-out: Produced NO %; for NO inhibitory activity (in words): 1–30 μM tested
Method: An inhibitory assay of NO production was examined in accordance with a previously reported method with minor modifications. Briefly, RAW264.7 cells (5 × 10^4 cells in 100 μL) were seeded on a 96-well microplate and incubated for 24 h. DMEM-containing test samples (100 μL total volume, final concentration of 30, 10, 3, or 1 μM) dissolved in DMSO (final concentration 0.2%) and LPS (final concentration of 5 μg/mL) was added. After being treated for 24 h, the supernatant of the culture medium was transferred to another 96-well microplate, and 50 μL of 0.15% N-(1-naphtyl)ethylenediamine in H2O and 1.5% sulfanilamide in 7.5% phosphoric acid were then added. After being incubated for 30 min, absorbance in each well was read at 570 nm using a microplate reader. The optical density of vehicle control cells was assumed to be 100%

RAW264.7 cells = experiment: RAW264.7 cell proliferation / cell viability (MTT); type: cell-based, mouse; details: for Cell Viavility %: 24 h, MTT, vs DMSO (100%), mean ± S.E., n=4
Method: RAW264.7 cell proliferation was examined in accordance with a previously reported method. Briefly, RAW264.7 cells (5 × 10^4 cells in 100 μL) were seeded on a 96-well microplate and incubated for 24 h. Dulbecco's modified eagle's medium (DMEM)-containing test samples (100 μL total volume, final concentration of 30, 10, 3, or 1 μM) dissolved in dimethyl sulfoxide (DMSO, final concentration 0.2%) was added. After being treated for 24 h, thiazolyl blue tetrazolium bromide (MTT) solution was added. After a 3-h incubation, 20% sodium dodecyl sulfate in 0.1 M HCl was added to dissolve the formazan produced in the cells. Absorbance in each well was read at 570 nm using a microplate reader. The optical density of vehicle control cells was assumed to be 100%.

[2] = RAW264.7, 1 μM, LPS 5 μg/mL, 24 h, vs DMSO (100%), mean ± S.E., n=4
[3] = RAW264.7, 3 μM, LPS 5 μg/mL, 24 h, vs DMSO (100%), mean ± S.E., n=4
[4] = RAW264.7, 10 μM, LPS 5 μg/mL, 24 h, vs DMSO (100%), mean ± S.E., n=4
[5] = RAW264.7, 30 μM, LPS 5 μg/mL, 24 h, vs DMSO (100%), mean ± S.E., n=4

SMILES	IC50 ([1]; RAW264.7, 24 h) [µM]	activity at 1 µM ([1]; RAW264.7, 24 h) [%]	activity at 3 µM ([1]; RAW264.7, 24 h) [%]	activity at 10 µM ([1]; RAW264.7, 24 h) [%]	activity at 30 µM ([1]; RAW264.7, 24 h) [%]	Cell Viavility % (RAW264.7 cells; 1 μM)	Cell Viavility % (RAW264.7 cells; 3 μM)	Cell Viavility % (RAW264.7 cells; 10 μM)	Cell Viavility % (RAW264.7 cells; 30 μM)	melting point [°C]	activity at 1 µM [1, 2] [%]	activity at 3 µM [1, 3] [%]	activity at 10 µM [1, 4] [%]	activity at 30 µM [1, 5] [%]	IC50 ([1]; LPS-stimulated RAW264.7, 24 h) [µM]	NO inhibitory activity (in words) [1]	Cytotoxicity at effective concentration (in words) (RAW264.7 cells; at 1–10 μM)	Cytotoxicity (in words) (RAW264.7 cells; at higher concentrations)	Cytotoxicity at effective concentration (in words) (RAW264.7 cells; at 1 and 3 μM)	Cytotoxicity (in words) (RAW264.7 cells; at 1–30 μM)
CO[C@H]1C[C@]2(C)CC[C@]3(C)[C@H](CC[C@@H]4[C@@]5(C)CC[C@H](OC(C)=O)C(C)(C)[C@@H]5CC[C@]43C)[C@@]23O[C@@]13C(C)C [Compound 1, 18β,19β-epoxy-21β-methoxylupan-3β-yl acetate]	> 30	94.8 ± 1.2	101.4 ± 0.7	90.5 ± 2.4	95.7 ± 4.6	(95.0 ± 0.7) %	(104.2 ± 1.3) %	(102.6 ± 0.7) %	(107.4 ± 2.0) %	–	–	–	–	–	–	–	–	–	–	–
CC(=O)O[C@H]1CC[C@]2(C)[C@H]3CC[C@@]4(C)[C@@H]5[C@@H](C)[C@H](C)CC[C@]5(C)CC[C@]4(C)C3=CC(=O)[C@H]2C1(C)C [Compound 2, 3β-acetoxybauer-7-en-6-one]	–	–	–	–	–	(100.0 ± 1.3) %	(102.2 ± 0.3) %	(105.1 ± 0.3) %	(105.7 ± 2.0) %	110 to 112	95.6 ± 2.7	101 ± 2.6	86.5 ± 1.4	71.4 ± 1.8	> 30	–	–	–	–	–
CC(=O)O[C@H]1CC[C@]2(C)[C@H]3CC[C@@]4(C)[C@H]([C@H](C)CCC=C(C)C)CC[C@]4(C)C3=CC(=O)[C@H]2C1(C)C [Compound 3, 3β-acetoxyeupha-7,24-dien-6-one]	> 30	101 ± 2.6	93.7 ± 1.4	93.3 ± 1.6	93.1 ± 0.9	(100.0 ± 1.4) %	(94.6 ± 8.2) %	(104.2 ± 0.7) %	(103.8 ± 1.0) %	140 to 143	–	–	–	–	–	–	–	–	–	–
CC(=O)O[C@H]1CC[C@]2(C)[C@H]3CC[C@@H]4[C@@]56O[C@]5(C(C)C)[C@@H](O)C[C@]6(C)CC[C@@]4(C)[C@]3(C)CC[C@H]2C1(C)C [Compound 4, 18β,19β-epoxy-21β-hydroxylupan-3β-yl acetate]	16.9	83.6 ± 0.9	76.8 ± 2.5	66 ± 0.8	35.4 ± 2.2	(98.4 ± 0.9) %	(97.9 ± 0.3) %	(92.7 ± 1.0) %	(49.5 ± 0.7) %	–	–	–	–	–	–	exhibited NO inhibitory activities	did not exhibit cytotoxicity	some cytotoxicity	–	–
CC(=O)O[C@H]1CC[C@]2(C)[C@H]3CC[C@@H]4C5=C(C(C)C)C(=O)C[C@]5(C)CC[C@@]4(C)[C@]3(C)CC[C@H]2C1(C)C [Compound 5, 21-oxolup-18-en-3β-yl acetate]	> 30	110 ± 5.2	106 ± 3.2	94.9 ± 4.3	92.7 ± 4.7	(98.4 ± 3.1) %	(94.8 ± 3.9) %	(90.7 ± 1.8) %	(88.9 ± 2.3) %	–	–	–	–	–	–	–	–	–	–	–
C=C(C)[C@@H]1CC[C@]2(CO)CC[C@]3(C)[C@H](CC[C@@H]4[C@@]5(C)CC[C@H](O)C(C)(C)[C@@H]5CC[C@]43C)[C@@H]12 [Compound 6, betulin]	17	83.4 ± 1.5	75 ± 3.2	65.4 ± 0.5	36.3 ± 0.6	(99.8 ± 0.1) %	(93.7 ± 1.1) %	(76.7 ± 0.7) %	(66.7 ± 1.2) %	–	–	–	–	–	–	exhibited NO inhibitory activities	–	some cytotoxicity	did not exhibit cytotoxicity	–
CC(C)C1=CC(=O)C(C)CCC2(C)C(CCC3C4(C)CCC(=O)C(C)(C)C4CCC32C)C1=O (stereo not drawn) [Compound 7, officinatrione]	–	–	–	–	–	(98.3 ± 2.6) %	(103.0 ± 2.4) %	(99.7 ± 3.8) %	(99.8 ± 3.0) %	–	101 ± 1	101 ± 2.5	89.8 ± 1.1	66.8 ± 0.8	> 30	exhibited NO inhibitory activities	–	–	–	no cytotoxicity
CO[C@@H]1C=C2[C@@H]3CC(C)(C)CC[C@]3(C)CC[C@@]2(C)[C@]2(C)CC[C@H]3C(C)(C)C(=O)CC[C@]3(C)[C@@H]12 [Compound 8, 11α-methoxyolean-12-en-3-one]	–	–	–	–	–	(99.9 ± 0.1) %	(100.4 ± 0.1) %	(100.5 ± 0.2) %	(103.0 ± 1.6) %	–	102.9 ± 0.7	105 ± 3.1	90.2 ± 7.1	64.1 ± 3.3	> 30	exhibited NO inhibitory activities	–	–	–	no cytotoxicity
CC(C)=CCC[C@@H](C)[C@@H]1CC[C@]2(C)C3=CC[C@H]4C(C)(C)C(=O)CC[C@]4(C)[C@H]3CC[C@@]12C [Compound 9, eupha-7,24-dien-3-one]	> 30	98.4 ± 3.9	100 ± 1.6	109 ± 2	108 ± 4.7	(99.3 ± 0.2) %	(98.8 ± 0.2) %	(99.1 ± 0.4) %	(99.9 ± 0.6) %	–	–	–	–	–	–	–	–	–	–	–
C=C(C)C(=O)CC[C@@H](C)[C@@H]1CC[C@]2(C)C3=CC[C@H]4C(C)(C)[C@@H](OC(C)=O)CC[C@]4(C)[C@H]3CC[C@@]12C [Compound 10]	18.4	93.8 ± 1.8	81.6 ± 3.7	67.5 ± 2.4	37 ± 1.8	(108.3 ± 4.7) %	(100.4 ± 0.2) %	(100.2 ± 0.1) %	(2.6 ± 0.4) %	–	–	–	–	–	–	exhibited NO inhibitory activities	did not exhibit cytotoxicity	some cytotoxicity	–	–
CNC(=N)NCCC[C@H](N)C(=O)O [L-NMMA, N^G-monomethyl-L-arginine acetate, reference compound]	–	–	–	–	–	(101.5 ± 0.9) %	(101.9 ± 0.4) %	(98.5 ± 0.9) %	(109.4 ± 0.5) %	–	93.3 ± 2.2	91.4 ± 0.8	68.9 ± 4.5	43.1 ± 1.1	23.9	–	–	–	–	–
